Consider 20 compounds from patent US9125913B2, “Bcl-2-selective apoptosis-inducing agents for the treatment of cancer and immune diseases” (AbbVie Inc., priority 2008, dated 2015).

Each structure is given as a SMILES string. A value given as a limit tells only on which side of the number the result lay.

This assay has as its system GST-Bcl-2. The assay is described as follows: TR-FRET binding assay, Bcl-2. Conditions: TR-FRET Ki values. The method, boiled down: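 Ki values come from Wang's competitive-binding equation applied to TR-FRET signal (excitation 340/35 nm; emission 520/525 nm F-Bak peptide, 495/510 nm Tb antibody). Protein, probe and antibody incubated with compound 3 h at room temperature; dilution series began at 50 μM as 2× stock in 10% DMSO.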
On the technique in general: TR-FRET usually uses a lanthanide donor and a delayed reading to cut background.
`CC(C)N(C)CCCNc1ccc(S(=O)(=O)NC(=O)c2ccc(N3CCN(Cc4ccccc4-c4ccc(Cl)cc4)CC3)cc2Oc2ccccc2)cc1[N+](=O)[O-]` [Example 93, 4-{4-[(4′-chloro-1,1′-biphenyl-2-yl)methyl]piperazin-1-yl}-N-{[4-({3-[isopropyl(methyl)amino]propyl}amino)-3-nitrophenyl]sulfonyl}-2-phenoxybenzamide]: the “Binding selectivity ratio (Bcl-XL Ki/Bcl-2 Ki)” value (“Binding selectivity ratio” below) is recorded as 60. The figure for `CN1CCN(CCNc2ccc(S(=O)(=O)NC(=O)c3ccc(N4CCN(CC5=C(c6ccc(Cl)cc6)CC(C)(C)CC5)CC4)cc3Oc3ccc4[nH]ccc4c3)cc2[N+](=O)[O-])CC1` [Example 95, 4-(4-{[2-(4-chlorophenyl)-4,4-dimethylcyclohex-1-en-1-yl]methyl}piperazin-1-yl)-2-(1H-indol-5-yloxy)-N-[(4-{[2-(4-methylpiperazin-1-yl)ethyl]amino}-3-nitrophenyl)sulfonyl]benzamide] is 261.7.

Regarding `CN1CCN(CCNc2ccc(S(=O)(=O)NC(=O)c3ccc(N4CCN(CC5=C(c6ccc(Cl)cc6)CC(C)(C)CC5)CC4)cc3Oc3cccc4[nH]ccc34)cc2[N+](=O)[O-])CC1` [Example 101, 4-(4-{[2-(4-chlorophenyl)-4,4-dimethylcyclohex-1-en-1-yl]methyl}piperazin-1-yl)-2-(1H-indol-4-yloxy)-N-[(4-{[2-(4-methylpiperazin-1-yl)ethyl]amino}-3-nitrophenyl)sulfonyl]benzamide], the “Binding selectivity ratio” value stood at 121.2. Regarding `CN1CCN(c2ccc(S(=O)(=O)NC(=O)c3ccc(N4CCN(CC5=C(c6ccc(Cl)cc6)CC(C)(C)CC5)CC4)cc3Oc3ccc4[nH]ccc4c3)cc2[N+](=O)[O-])CC1` [Example 107, 4-(4-{[2-(4-chlorophenyl)-4,4-dimethylcyclohex-1-en-1-yl]methyl}piperazin-1-yl)-2-(1H-indol-5-yloxy)-N-{[4-(4-methylpiperazin-1-yl)-3-nitrophenyl]sulfonyl}benzamide], the “Binding selectivity ratio” value came out at 62.5. With `CC1(C)CCC(CN2CCN(c3ccc(C(=O)NS(=O)(=O)c4ccc(NC5CCN(CC(F)(F)F)CC5)c([N+](=O)[O-])c4)c(Oc4cccc5[nH]ccc45)c3)CC2)=C(c2ccc(Cl)cc2)C1` [Example 108, 4-(4-{[2-(4-chlorophenyl)-4,4-dimethylcyclohex-1-en-1-yl]methyl}piperazin-1-yl)-2-(1H-indol-4-yloxy)-N-[(3-nitro-4-{[1-(2,2,2-trifluoroethyl)piperidin-4-yl]amino}phenyl)sulfonyl]benzamide] the figure was 25.5. With `O=C(NS(=O)(=O)c1ccc(NCC2CCOCC2)c([N+](=O)[O-])c1)c1ccc(N2CCN(Cc3cc(OCCCN4CCCCC4)ccc3-c3ccc(Cl)cc3)CC2)cc1Oc1ccccc1` [Example 114, 4-(4-{[4′-chloro-4-(3-piperidin-1-ylpropoxy)-1,1′-biphenyl-2-yl]methyl}piperazin-1-yl)-N-({3-nitro-4-[(tetrahydro-2H-pyran-4-ylmethyl)amino]phenyl}sulfonyl)-2-phenoxybenzamide] the figure was 149.2. The figure for `O=C(NS(=O)(=O)c1ccc(NCC2CCOCC2)c([N+](=O)[O-])c1)c1ccc(N2CCN(Cc3cc(OCCN4CCOCC4)ccc3-c3ccc(Cl)cc3)CC2)cc1Oc1ccccc1` [Example 115, 4-(4-{[4′-chloro-4-(2-morpholin-4-ylethoxy)-1,1′-biphenyl-2-yl]methyl}piperazin-1-yl)-N-({3-nitro-4-[(tetrahydro-2H-pyran-4-ylmethyl)amino]phenyl}sulfonyl)-2-phenoxybenzamide] is 156.4; for `CN(C)CCCOc1ccc(-c2ccc(Cl)cc2)c(CN2CCN(c3ccc(C(=O)NS(=O)(=O)c4ccc(NCC5CCOCC5)c([N+](=O)[O-])c4)c(Oc4ccccc4)c3)CC2)c1` [Example 116, 4-[4-({4′-chloro-4-[3-(dimethylamino)propoxy]-1,1′-biphenyl-2-yl}methyl)piperazin-1-yl]-N-({3-nitro-4-[(tetrahydro-2H-pyran-4-ylmethyl)amino]phenyl}sulfonyl)-2-phenoxybenzamide] it is 230.7. Regarding `O=C(NS(=O)(=O)c1ccc(NCC2CCOCC2)c(S(=O)(=O)C(F)(F)F)c1)c1ccc(N2CCN(Cc3cc(OCCN4CCOCC4)ccc3-c3ccc(Cl)cc3)CC2)cc1Oc1ccccc1` [Example 117, 4-(4-{[4′-chloro-4-(2-morpholin-4-ylethoxy)-1,1′-biphenyl-2-yl]methyl}piperazin-1-yl)-2-phenoxy-N-({4-[(tetrahydro-2H-pyran-4-ylmethyl)amino]-3-[(trifluoromethyl)sulfonyl]phenyl}sulfonyl)benzamide], the “Binding selectivity ratio” value is reported as greater than 287.1.

Consider `O=C(NS(=O)(=O)c1ccc(NCC2CCOCC2)c(S(=O)(=O)C(F)(F)F)c1)c1ccc(N2CCN(Cc3cc(OCCCN4CCCCC4)ccc3-c3ccc(Cl)cc3)CC2)cc1Oc1ccccc1` [Example 118, 4-(4-{[4′-chloro-4-(3-piperidin-1-ylpropoxy)-1,1′-biphenyl-2-yl]methyl}piperazin-1-yl)-2-phenoxy-N-({4-[(tetrahydro-2H-pyran-4-ylmethyl)amino]-3-[(trifluoromethyl)sulfonyl]phenyl}sulfonyl)benzamide], for which the “Binding selectivity ratio” value was greater than 858.3. In the case of `CN(C)CCCOc1ccc(-c2ccc(Cl)cc2)c(CN2CCN(c3ccc(C(=O)NS(=O)(=O)c4ccc(NCC5CCOCC5)c(S(=O)(=O)C(F)(F)F)c4)c(Oc4ccccc4)c3)CC2)c1` [Example 119, 4-[4-({4′-chloro-4-[3-(dimethylamino)propoxy]-1,1′-biphenyl-2-yl}methyl)piperazin-1-yl]-2-phenoxy-N-({4-[(tetrahydro-2H-pyran-4-ylmethyl)amino]-3-[(trifluoromethyl)sulfonyl]phenyl}sulfonyl)benzamide], the “Binding selectivity ratio” value is given as 370.2. For the compound `CN(C)CCOc1cccc(-c2ccc(Cl)cc2)c1CN1CCN(c2ccc(C(=O)NS(=O)(=O)c3ccc(NCC4CCOCC4)c(S(=O)(=O)C(F)(F)F)c3)c(Oc3ccccc3)c2)CC1` [Example 124, 4-[4-({4′-chloro-3-[2-(dimethylamino)ethoxy]-1,1′-biphenyl-2-yl}methyl)piperazin-1-yl]-2-phenoxy-N-({4-[(tetrahydro-2H-pyran-4-ylmethyl)amino]-3-[(trifluoromethyl)sulfonyl]phenyl}sulfonyl)benzamide], the “Binding selectivity ratio” value was 220.1.

For `O=C(NS(=O)(=O)c1ccc(NCC2CCOCC2)c([N+](=O)[O-])c1)c1ccc(N2CCN(Cc3cc(OCCN4CCOCC4)ccc3-c3ccc(Cl)cc3)CC2)cc1Oc1ccc2[nH]ccc2c1` [Example 127, 4-(4-{[4′-chloro-4-(2-morpholin-4-ylethoxy)-1,1′-biphenyl-2-yl]methyl}piperazin-1-yl)-2-(1H-indol-5-yloxy)-N-({3-nitro-4-[(tetrahydro-2H-pyran-4-ylmethyl)amino]phenyl}sulfonyl)benzamide], the “Binding selectivity ratio” value is greater than 1437.9. On to `CN(C)CCNc1ccc(S(=O)(=O)NC(=O)c2ccc(N3CCN(Cc4ccccc4-c4ccc(Cl)cc4)CC3)cc2Oc2ccccc2)cc1[N+](=O)[O-]` [Example 153, 4-{4-[(4′-chloro-1,1′-biphenyl-2-yl)methyl]piperazin-1-yl}-N-[(4-{[2-(dimethylamino)ethyl]amino}-3-nitrophenyl)sulfonyl]-2-phenoxybenzamide], for which the “Binding selectivity ratio” value was 351. Take `CN(C)CCCCNc1ccc(S(=O)(=O)NC(=O)c2ccc(N3CCN(Cc4ccccc4-c4ccc(Cl)cc4)CC3)cc2Oc2ccccc2)cc1[N+](=O)[O-]` [Example 156, 4-{4-[(4′-chloro-1,1′-biphenyl-2-yl)methyl]piperazin-1-yl}-N-[(4-{[4-(dimethylamino)butyl]amino}-3-nitrophenyl)sulfonyl]-2-phenoxybenzamide]: the “Binding selectivity ratio” value worked out at 53.1.

Take `O=C(NS(=O)(=O)c1ccc(NC2CCN(S(=O)(=O)c3ccccc3)CC2)c([N+](=O)[O-])c1)c1ccc(N2CCN(Cc3ccccc3-c3ccc(Cl)cc3)CC2)cc1Oc1ccccc1` [Example 157, 4-{4-[(4′-chloro-1,1′-biphenyl-2-yl)methyl]piperazin-1-yl}-N-[(3-nitro-4-{[1-(phenylsulfonyl)piperidin-4-yl]amino}phenyl)sulfonyl]-2-phenoxybenzamide]: the “Binding selectivity ratio” value is greater than 148.2. Regarding `O=C(NS(=O)(=O)c1ccc(NC2CCN(S(=O)(=O)c3cccc4cccnc34)CC2)c([N+](=O)[O-])c1)c1ccc(N2CCN(Cc3ccccc3-c3ccc(Cl)cc3)CC2)cc1Oc1ccccc1` [Example 158, 4-{4-[(4′-chloro-1,1′-biphenyl-2-yl)methyl]piperazin-1-yl}-N-[(3-nitro-4-{[1-(quinolin-8-ylsulfonyl)piperidin-4-yl]amino}phenyl)sulfonyl]-2-phenoxybenzamide], the “Binding selectivity ratio” value is given as greater than 10.2.

Consider `CN(C)CC[C@H](Nc1ccc(S(=O)(=O)NC(=O)c2ccc(N3CCN(Cc4ccccc4-c4ccc(Cl)cc4)CC3)cc2Oc2ccccc2)cc1[N+](=O)[O-])c1cccs1` [Example 161, 4-{4-[(4′-chloro-1,1′-biphenyl-2-yl)methyl]piperazin-1-yl}-N-[(4-{[(1S)-3-(dimethylamino)-1-thien-2-ylpropyl]amino}-3-nitrophenyl)sulfonyl]-2-phenoxybenzamide], for which the “Binding selectivity ratio” value is recorded as greater than 386.0. With `O=C(NS(=O)(=O)c1ccc(NCc2cccs2)c([N+](=O)[O-])c1)c1ccc(N2CCN(Cc3ccccc3-c3ccc(Cl)cc3)CC2)cc1Oc1ccccc1` [Example 162, 4-{4-[(4′-chloro-1,1′-biphenyl-2-yl)methyl]piperazin-1-yl}-N-({3-nitro-4-[(thien-2-ylmethyl)amino]phenyl}sulfonyl)-2-phenoxybenzamide] the figure was 123.8; with `O=C(NS(=O)(=O)c1ccc(NCC2CCOCC2)c(S(=O)(=O)C(F)(F)F)c1)c1ccc(N2CCN(Cc3ccccc3-c3ccc(Cl)cc3)CC2)cc1Oc1ccccc1` [Example 163, 4-{4-[(4′-chloro-1,1′-biphenyl-2-yl)methyl]piperazin-1-yl}-2-phenoxy-N-({4-[(tetrahydro-2H-pyran-4-ylmethyl)amino]-3-[(trifluoromethyl)sulfonyl]phenyl}sulfonyl)benzamide], greater than 117.5.
